In brackets after ≈: the same amount, converted by molar mass. Where two headings read alike, the source gives them in different places.
What was measured:
B16-F1 cells = test: Melanogenesis inhibition (skin lightening) assay in cultured melanocyte cells, secreted melanin OD405; format: cell-based; design: Melanogenesis Inhibition Activity: scale not given here; details: for Melanogenesis Inhibition Activity: B16-F1 cells, 96 hours
Method: These were conducted using cultured melanocyte cells exposed to dilutions of the best materials, and compared with kojic acid, a brown skin lightener. The degree of melanin production was inversely proportional to the skin lightener activity. Any cytotoxic effect of the test materials is reflected in a decrease in melanin formation. Each 96 well assay plate included a solvent control and a blank control. […] When the cell cultures were 50 to 80% confluent, the growth medium was removed from the flasks and the cultures rinsed with 10 ml of HBSS. 2 ml of trypsin/EDTA solution was added and the flasks were incubated at 37° C.+/−1° C. for 2 to 5 minutes. When the cells started to dislodge, the flask was rapped sharply against the palm of the hand and approximately 5 ml of assay medium added to neutralise the trypsin. The concentration of cells was determined by counting an aliquot of the stock cell suspension in a haemocytometer. A seeding suspension of 5×10^4 cells/ml was prepared in assay medium. One hundred microlitres of the seeding cell suspension was added to the appropriate wells on each 96 well plate. One hundred microlitres of growth medium was added to the outer wells to maintain humidity. The cells were incubated at 37+/−1° C. in a humidified atmosphere containing 5+/−1% CO2 in air for 24 hours. Based on the information available for the test article, eight decreasing doses were selected and used in the assay. […] In the case of the mixture of protocatechuic acid and arbutin, a 1 to 1 w/w mixture of each was used in each assay with the concentration of each in the highest dose assay being 2.5 mg/ml, and then pro rata in the dilutions assayed in the other 7 assays. […] The test article and positive control was tested by treating six wells per dilution of B16-F1 cells seeded approximately 24 hours earlier. Prior to treatment the medium was removed, and 200 μl of the pre-warmed (37 +/−1° C.) test article dilutions, positive control dilutions and solvent control, were added to the appropriate wells. All test article concentrations were dosed into a single outer well (200 μl) of the corresponding plate to serve as a turbidity control. The remaining wells around the edge of the plate, designated as blanks, received 200 μl of assay medium prior to incubation. Following dosing, the plates were incubated at 37+/−1° C. for 96 hours +/−2 hours. After exposure, 150 μl of each treatment solution (containing any secreted melanin) was removed and transferred to the corresponding wells of a new 96 well plate (melanin production plate). Turbidity controls were also transferred. The absorbance of the melanin present in the melanin production plates was measured at 405 nm (OD405) with an Anthos 2010™microplate reader. The mean of the six OD405 values for each concentration of test article and positive control was calculated. The turbidity control values were subtracted to obtain a correct OD405 value. The mean of the six OD405 values for the corresponding negative or solvent control were calculated by subtracting the blank control value. The corrected OD405 values of the test article or positive control was divided by the corrected OD405 value for the negative or solvent control to obtain a melanin production ratio.

[1] = Solubilities of compounds of the invention; format: physicochemical
[2] = Taste, odour and colour of compounds of the invention; format: physicochemical; details: determined at effective concentrations
[3] = ethylene glycol, organic solvent or mixture, read-out: Solubility Ethylene Clycol
[4] = aqueous buffer, water, pH 7.0, read-out: Solubility Water (pH 7.0)
[5] = ethanol, organic solvent or mixture, read-out: Solubility Ethanol
[6] = oil, oil or lipid, read-out: Solubility Oil

Taste/Odour [2] | Colour (Solution in Ethanol) [2] | SMILES | Melanogenesis Inhibition Activity (B16-F1 cells; 0.015 mg/ml) | Melanogenesis Inhibition Activity (B16-F1 cells; 0.05 mg/ml) | Melanogenesis Inhibition Activity (B16-F1 cells; 0.15 mg/ml) | Melanogenesis Inhibition Activity (B16-F1 cells; 0.5 mg/ml) | Melanogenesis Inhibition Activity (B16-F1 cells; 1.5 mg/ml) | Melanogenesis Inhibition Activity (B16-F1 cells; 5 mg/ml) | Melanogenesis Inhibition Activity (B16-F1 cells; 15 mg/ml) | solubility [1, 3] | skin lightening effect when used together with another skin lightening agent (B16-F1 cells; arbutin used together with protocatechuic acid) | solubility [1, 4] | solubility [1, 5] | solubility [1, 6]
– | – | OC[C@H]1O[C@@H](Oc2ccc(O)cc2)[C@H](O)[C@@H](O)[C@@H]1O [Arbutin, reference compound] | 0 | 1 | 4 | 11 | 17 | 14 | 11 | – | – | – | – | –
Smoky | Colourless | CCc1ccc(O)c(OC)c1 [Ethylguaiacol, 4-Ethyl-2-methoxyphenol] | 2 | 8 | 14 | 17 | 0 | 0 | 0 | 250 mg/mL (≈ 1640 mM) | – | – | – | –
– | – | O=c1cc(CO)occ1O [Kojic acid, reference compound] | 0 | 0 | 0 | 2 | 57 | 170 | 255 | – | – | – | – | –
Cloves | Colourless | C=Cc1ccc(O)c(OC)c1 [Vinylguaiacol, 4-Vinyl-2-methoxyphenol] | 3 | 6 | 10 | 1 | 0 | 0 | 0 | – | – | > 2 mg/mL | > 100 mg/mL | > 50 mg/mL

SMILES | Taste/Odour [2] | Colour (Solution in Ethanol) [2] | Melanogenesis Inhibition Activity (B16-F1 cells; 0.015 mg/ml) | Melanogenesis Inhibition Activity (B16-F1 cells; 0.05 mg/ml) | Melanogenesis Inhibition Activity (B16-F1 cells; 0.15 mg/ml) | Melanogenesis Inhibition Activity (B16-F1 cells; 0.5 mg/ml) | Melanogenesis Inhibition Activity (B16-F1 cells; 1.5 mg/ml) | Melanogenesis Inhibition Activity (B16-F1 cells; 5 mg/ml) | Melanogenesis Inhibition Activity (B16-F1 cells; 15 mg/ml) | solubility [1, 3] | skin lightening effect when used together with another skin lightening agent (B16-F1 cells; arbutin used together with protocatechuic acid) | solubility [1, 4] | solubility [1, 5] | solubility [1, 6]
O=C(O)c1ccc(O)c(O)c1 [Protocatechuic acid, 3,4-Dihydroxybenzoic acid] | None | Colourless | 0.5 | 2 | 1 | 3 | 7 | 0 | 0 | 250 mg/mL (≈ 1620 mM) | synergistic skin lightening effect | > 300 mg/mL | > 500 mg/mL | < 0.2 mg/mL

From patent US20030072726A1, “Skin lightening agents” (priority 1999, published 2003)
